Reference: ChEMBL document CHEMBL1201862, “PubChem BioAssay data set” (2004)
Activity calls are given as the source filed them.

Assays:
[1] = biological target: Photoreceptor-specific nuclear receptor (Homo sapiens, UniProt Q9Y5X4); type: functional;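 also: potency for compounds that break the NR2E3 corepressor complex and count as activators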
[2] = biological target: T1, Replicative DNA helicase DnaB (Mycobacterium tuberculosis, UniProt P9WMR3); experiment: DnaB intein splicing inhibitors, dose response, biochemical, cell-free fluorescence (AID 449749); type: functional
T1 sequence (P9WMR3 whole entry): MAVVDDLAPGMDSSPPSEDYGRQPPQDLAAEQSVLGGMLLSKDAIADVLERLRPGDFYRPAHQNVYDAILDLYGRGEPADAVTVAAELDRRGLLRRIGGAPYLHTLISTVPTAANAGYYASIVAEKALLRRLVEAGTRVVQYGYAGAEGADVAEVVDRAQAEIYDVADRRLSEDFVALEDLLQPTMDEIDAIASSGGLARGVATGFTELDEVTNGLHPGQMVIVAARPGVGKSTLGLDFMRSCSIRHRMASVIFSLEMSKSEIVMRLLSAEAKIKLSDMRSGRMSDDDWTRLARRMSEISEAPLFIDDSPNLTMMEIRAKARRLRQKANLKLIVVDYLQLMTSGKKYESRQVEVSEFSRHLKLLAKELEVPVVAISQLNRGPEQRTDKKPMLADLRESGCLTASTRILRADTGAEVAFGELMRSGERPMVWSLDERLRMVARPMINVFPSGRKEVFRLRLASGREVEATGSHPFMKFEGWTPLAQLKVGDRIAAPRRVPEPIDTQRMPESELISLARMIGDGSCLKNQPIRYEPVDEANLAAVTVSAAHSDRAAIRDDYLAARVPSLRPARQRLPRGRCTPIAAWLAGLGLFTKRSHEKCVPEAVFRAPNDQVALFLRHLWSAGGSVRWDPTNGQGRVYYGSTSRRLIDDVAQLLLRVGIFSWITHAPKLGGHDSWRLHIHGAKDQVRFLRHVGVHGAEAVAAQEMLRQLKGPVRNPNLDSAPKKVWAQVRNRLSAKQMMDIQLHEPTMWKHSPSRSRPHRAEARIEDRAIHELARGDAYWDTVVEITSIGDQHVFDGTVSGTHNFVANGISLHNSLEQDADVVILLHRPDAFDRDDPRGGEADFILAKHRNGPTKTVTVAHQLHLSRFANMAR

Protein RecA = biological target: T2, Protein RecA (Mycobacterium tuberculosis, UniProt P9WHJ3); experiment: Fluorescence Cell-Free Homogeneous Dose Retest to Identify Inhibitors of RecA-Intein Splicing Activity. [Related pubchem assays (depositor defined):AID2097, AID2223, AID489010, AID492950]; type: functional
T2 sequence (P9WHJ3 whole entry): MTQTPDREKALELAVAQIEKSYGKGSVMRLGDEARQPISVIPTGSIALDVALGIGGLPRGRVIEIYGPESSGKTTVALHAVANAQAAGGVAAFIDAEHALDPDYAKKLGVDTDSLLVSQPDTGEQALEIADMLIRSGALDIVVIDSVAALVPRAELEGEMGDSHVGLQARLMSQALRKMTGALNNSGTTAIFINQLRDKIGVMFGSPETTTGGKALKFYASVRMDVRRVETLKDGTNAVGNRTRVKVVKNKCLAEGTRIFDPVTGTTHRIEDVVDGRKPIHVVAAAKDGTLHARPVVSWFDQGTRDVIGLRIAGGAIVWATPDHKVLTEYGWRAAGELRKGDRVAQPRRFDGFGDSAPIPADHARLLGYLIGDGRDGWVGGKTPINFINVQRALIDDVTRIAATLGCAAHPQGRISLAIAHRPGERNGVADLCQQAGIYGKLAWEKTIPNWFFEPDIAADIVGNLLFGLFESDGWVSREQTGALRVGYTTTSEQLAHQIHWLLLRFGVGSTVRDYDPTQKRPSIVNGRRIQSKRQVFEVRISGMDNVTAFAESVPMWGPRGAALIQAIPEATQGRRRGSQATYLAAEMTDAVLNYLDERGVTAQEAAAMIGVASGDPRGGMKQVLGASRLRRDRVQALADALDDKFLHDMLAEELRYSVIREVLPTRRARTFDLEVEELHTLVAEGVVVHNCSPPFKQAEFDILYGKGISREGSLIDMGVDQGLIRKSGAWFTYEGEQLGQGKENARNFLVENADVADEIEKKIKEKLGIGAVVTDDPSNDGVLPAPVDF

[3] = biological target: Tyrosine-protein kinase JAK2 (Homo sapiens, UniProt O60674); type: functional;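 also: JAK2 tested as one member of a kinase panel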
[4] = biological target: Proto-oncogene tyrosine-protein kinase receptor Ret (Homo sapiens, UniProt P07949); type: functional;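 also: measured within a kinome-wide profiling panel, RET as the panel member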
[5] = biological target: Testis-specific serine/threonine-protein kinase 2 (Homo sapiens, UniProt Q96PF2); type: functional;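 also: part of the Navigating the Kinome panel, target entry STK22B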
Activin receptor type-1 = Activin receptor type-1 (Homo sapiens, UniProt Q04771); experiment: Navigating the Kinome. Panel member name: ACVR1; type: functional
[6] = biological target: Tyrosine-protein kinase JAK3 (Homo sapiens, UniProt P52333); type: functional
[7] = biological target: Testis-specific serine/threonine-protein kinase 1 (Homo sapiens, UniProt Q9BXA7); type: functional
[8] = biological target: MAP kinase-interacting serine/threonine-protein kinase 2 (Homo sapiens, UniProt Q9HBH9); type: functional
Ephrin type-A receptor 2 = Ephrin type-A receptor 2 (Homo sapiens, UniProt P29317); type: functional;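 also: EPHA2 tested as one member of a kinome-wide kinase panel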
[9] = biological target: cAMP-dependent protein kinase catalytic subunit PRKX (Homo sapiens, UniProt P51817); type: functional
[10] = biological target: Platelet-derived growth factor receptor alpha (Homo sapiens, UniProt P16234); experiment: Navigating the Kinome. Panel member name: PDGFRA; type: functional
[11] = biological target: Vascular endothelial growth factor receptor 3 (Homo sapiens, UniProt P35916); type: functional;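 also: value from a kinome-wide profiling panel, with FLT4 as the panel member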
[12] = biological target: Receptor tyrosine-protein kinase erbB-4 (Homo sapiens, UniProt Q15303); type: functional;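 also: ERBB4 member of a kinome-wide kinase profiling panel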
[13] = biological target: Serine/threonine-protein kinase MRCK alpha (Homo sapiens, UniProt Q5VT25); type: functional
Streptococcus = experiment: Group A Streptococcus viability loss, dose response, counter-screen for streptokinase expression inhibitor project, luminescence, BacTiterGlo (AID 1915); type: functional, organism-based;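 also: potency for reduction of bacterial viability or growth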
[14] = biological target: 1-acylglycerol-3-phosphate O-acyltransferase ABHD5/Perilipin-5 (Homo sapiens, UniProt Q00G26+Q8WTS1); experiment: Luminescence-based biochemical high throughput dose response assay for inhibitors of the interaction of the lipase co-activator protein, abhydrolase domain containing 5 (ABHD5) with perilipin-5 (MLDP; PLIN5) (2K validation set). [Related pubchem assays (depositor defined):AID493035, AID493241]
Perilipin-1/ABHD5 = Perilipin-1/ABHD5 (Homo sapiens, UniProt O60240+Q8WTS1); experiment: Luminescence-based biochemical high throughput dose response assay for inhibitors of the interaction of the lipase co-activator protein, abhydrolase domain containing 5 (ABHD5) with perilipin-1 (PLIN1) (2K validation set). [Related pubchem assays (depositor defined):AID493027, AID493057]

Sequence of Photoreceptor-specific nuclear receptor (Q9Y5X4 whole entry): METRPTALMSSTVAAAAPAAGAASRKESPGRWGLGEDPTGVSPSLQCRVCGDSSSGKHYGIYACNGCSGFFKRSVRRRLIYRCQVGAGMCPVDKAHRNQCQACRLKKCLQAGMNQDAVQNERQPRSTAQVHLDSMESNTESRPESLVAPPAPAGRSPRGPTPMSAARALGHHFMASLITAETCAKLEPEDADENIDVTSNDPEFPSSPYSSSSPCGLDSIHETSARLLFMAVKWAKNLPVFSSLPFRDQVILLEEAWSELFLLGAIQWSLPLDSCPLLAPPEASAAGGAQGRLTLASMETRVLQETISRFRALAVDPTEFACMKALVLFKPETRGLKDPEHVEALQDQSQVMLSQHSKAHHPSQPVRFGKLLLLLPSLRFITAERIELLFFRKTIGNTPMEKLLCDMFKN
Sequence of MAP kinase-interacting serine/threonine-protein kinase 2 (Q9HBH9 whole entry): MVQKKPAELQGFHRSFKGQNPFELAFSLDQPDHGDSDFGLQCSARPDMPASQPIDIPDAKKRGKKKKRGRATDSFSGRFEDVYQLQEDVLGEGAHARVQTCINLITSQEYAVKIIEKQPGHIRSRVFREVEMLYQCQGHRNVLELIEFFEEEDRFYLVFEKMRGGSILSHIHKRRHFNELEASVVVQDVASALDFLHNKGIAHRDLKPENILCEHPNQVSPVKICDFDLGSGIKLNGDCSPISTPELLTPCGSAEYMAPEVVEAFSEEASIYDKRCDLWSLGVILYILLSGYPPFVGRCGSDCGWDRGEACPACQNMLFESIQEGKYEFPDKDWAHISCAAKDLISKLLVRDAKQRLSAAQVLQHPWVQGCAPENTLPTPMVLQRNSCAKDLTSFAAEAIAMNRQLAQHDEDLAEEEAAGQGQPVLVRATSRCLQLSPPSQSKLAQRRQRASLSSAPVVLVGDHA
Sequence of 1-acylglycerol-3-phosphate O-acyltransferase ABHD5/Perilipin-5 (Q00G26 whole entry, the tested form may be a part): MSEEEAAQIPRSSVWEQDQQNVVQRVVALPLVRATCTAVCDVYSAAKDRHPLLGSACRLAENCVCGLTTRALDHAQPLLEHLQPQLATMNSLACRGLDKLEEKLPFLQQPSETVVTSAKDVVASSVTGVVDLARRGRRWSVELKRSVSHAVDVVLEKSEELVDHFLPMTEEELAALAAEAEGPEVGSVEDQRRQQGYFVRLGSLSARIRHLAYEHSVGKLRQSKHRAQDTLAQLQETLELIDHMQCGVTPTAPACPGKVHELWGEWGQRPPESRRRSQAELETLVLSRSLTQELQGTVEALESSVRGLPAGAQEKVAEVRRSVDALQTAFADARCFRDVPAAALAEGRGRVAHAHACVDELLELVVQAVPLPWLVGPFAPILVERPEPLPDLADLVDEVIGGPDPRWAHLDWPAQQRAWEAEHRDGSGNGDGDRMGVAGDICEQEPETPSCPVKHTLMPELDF
Sequence of 1-acylglycerol-3-phosphate O-acyltransferase ABHD5/Perilipin-5 (Q8WTS1 whole entry, the tested form may be a part): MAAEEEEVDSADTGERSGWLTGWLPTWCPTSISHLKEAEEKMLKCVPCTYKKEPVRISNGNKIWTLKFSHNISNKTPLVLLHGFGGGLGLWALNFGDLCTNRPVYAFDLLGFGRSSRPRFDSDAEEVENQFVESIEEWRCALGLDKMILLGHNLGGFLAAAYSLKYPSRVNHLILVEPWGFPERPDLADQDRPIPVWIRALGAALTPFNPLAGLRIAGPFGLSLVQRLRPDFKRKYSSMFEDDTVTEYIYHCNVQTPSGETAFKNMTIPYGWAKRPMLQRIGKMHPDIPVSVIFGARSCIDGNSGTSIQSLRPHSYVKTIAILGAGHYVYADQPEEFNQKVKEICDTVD
Sequence of Receptor tyrosine-protein kinase erbB-4 (Q15303 whole entry): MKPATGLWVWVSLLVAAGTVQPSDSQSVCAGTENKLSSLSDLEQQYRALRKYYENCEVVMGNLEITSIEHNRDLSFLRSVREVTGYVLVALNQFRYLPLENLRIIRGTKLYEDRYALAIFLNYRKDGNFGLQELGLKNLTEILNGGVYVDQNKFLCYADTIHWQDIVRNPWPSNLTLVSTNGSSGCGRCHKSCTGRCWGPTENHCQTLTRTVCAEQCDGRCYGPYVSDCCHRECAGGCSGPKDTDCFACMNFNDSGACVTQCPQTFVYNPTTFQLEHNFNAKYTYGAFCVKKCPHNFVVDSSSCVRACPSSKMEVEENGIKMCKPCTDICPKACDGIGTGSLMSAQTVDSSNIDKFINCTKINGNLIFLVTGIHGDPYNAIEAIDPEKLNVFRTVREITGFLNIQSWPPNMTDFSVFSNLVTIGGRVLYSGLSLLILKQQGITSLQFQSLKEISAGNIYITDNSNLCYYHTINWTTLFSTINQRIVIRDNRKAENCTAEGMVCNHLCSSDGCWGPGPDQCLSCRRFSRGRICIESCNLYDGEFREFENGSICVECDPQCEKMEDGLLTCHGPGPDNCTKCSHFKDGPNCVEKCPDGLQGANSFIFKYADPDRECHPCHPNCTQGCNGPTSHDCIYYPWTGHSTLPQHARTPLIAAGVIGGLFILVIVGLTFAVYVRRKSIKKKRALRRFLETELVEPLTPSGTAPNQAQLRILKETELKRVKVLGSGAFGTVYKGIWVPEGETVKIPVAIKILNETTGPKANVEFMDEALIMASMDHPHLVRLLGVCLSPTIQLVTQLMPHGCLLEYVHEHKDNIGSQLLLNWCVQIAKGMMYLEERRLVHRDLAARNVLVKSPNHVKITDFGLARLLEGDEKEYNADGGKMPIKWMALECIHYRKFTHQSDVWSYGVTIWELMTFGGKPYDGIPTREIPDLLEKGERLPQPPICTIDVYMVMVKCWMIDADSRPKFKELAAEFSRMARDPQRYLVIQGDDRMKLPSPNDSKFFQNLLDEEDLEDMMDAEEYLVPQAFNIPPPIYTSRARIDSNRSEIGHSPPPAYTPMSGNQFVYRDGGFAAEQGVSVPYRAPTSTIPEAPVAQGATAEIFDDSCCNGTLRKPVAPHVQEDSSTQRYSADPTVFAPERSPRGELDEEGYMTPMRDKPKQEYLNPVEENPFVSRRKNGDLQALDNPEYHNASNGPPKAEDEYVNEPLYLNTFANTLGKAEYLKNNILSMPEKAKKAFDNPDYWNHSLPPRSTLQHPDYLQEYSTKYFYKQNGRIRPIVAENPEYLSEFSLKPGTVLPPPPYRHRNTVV
Sequence of Vascular endothelial growth factor receptor 3 (P35916 whole entry): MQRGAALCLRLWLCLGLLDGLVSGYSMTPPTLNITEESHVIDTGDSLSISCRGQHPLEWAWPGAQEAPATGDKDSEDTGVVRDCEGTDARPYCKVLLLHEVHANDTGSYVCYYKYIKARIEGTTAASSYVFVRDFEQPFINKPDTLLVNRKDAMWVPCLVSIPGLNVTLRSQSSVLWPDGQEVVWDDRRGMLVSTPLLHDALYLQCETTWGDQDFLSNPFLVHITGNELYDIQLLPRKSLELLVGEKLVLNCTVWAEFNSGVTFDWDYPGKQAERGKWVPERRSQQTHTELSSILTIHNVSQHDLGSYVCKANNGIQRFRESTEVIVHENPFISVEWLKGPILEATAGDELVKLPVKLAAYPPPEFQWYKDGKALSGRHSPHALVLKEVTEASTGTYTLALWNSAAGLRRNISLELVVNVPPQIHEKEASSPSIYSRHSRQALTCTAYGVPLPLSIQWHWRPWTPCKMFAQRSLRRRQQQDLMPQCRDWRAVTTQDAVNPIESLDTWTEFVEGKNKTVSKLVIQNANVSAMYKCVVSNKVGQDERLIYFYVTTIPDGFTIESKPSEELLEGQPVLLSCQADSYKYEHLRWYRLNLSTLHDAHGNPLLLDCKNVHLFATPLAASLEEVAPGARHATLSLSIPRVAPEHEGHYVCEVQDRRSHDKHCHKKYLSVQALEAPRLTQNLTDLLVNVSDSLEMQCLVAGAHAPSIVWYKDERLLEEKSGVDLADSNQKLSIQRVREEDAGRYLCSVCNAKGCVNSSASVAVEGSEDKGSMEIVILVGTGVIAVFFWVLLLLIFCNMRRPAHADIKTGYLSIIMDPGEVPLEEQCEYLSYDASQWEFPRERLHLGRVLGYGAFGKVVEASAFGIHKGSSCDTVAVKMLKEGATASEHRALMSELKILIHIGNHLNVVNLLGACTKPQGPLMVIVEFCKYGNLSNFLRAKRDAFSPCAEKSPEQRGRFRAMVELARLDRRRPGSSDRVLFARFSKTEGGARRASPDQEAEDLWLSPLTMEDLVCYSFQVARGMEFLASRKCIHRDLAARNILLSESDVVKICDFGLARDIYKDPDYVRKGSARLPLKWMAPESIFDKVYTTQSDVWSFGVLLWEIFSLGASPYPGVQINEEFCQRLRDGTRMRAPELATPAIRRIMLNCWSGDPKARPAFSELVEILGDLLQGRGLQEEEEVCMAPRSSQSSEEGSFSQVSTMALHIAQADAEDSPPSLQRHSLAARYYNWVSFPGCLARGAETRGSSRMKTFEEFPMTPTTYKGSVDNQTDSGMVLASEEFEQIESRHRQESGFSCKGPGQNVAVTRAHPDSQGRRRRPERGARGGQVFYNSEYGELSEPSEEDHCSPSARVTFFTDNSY
Sequence of Activin receptor type-1 (Q04771 whole entry): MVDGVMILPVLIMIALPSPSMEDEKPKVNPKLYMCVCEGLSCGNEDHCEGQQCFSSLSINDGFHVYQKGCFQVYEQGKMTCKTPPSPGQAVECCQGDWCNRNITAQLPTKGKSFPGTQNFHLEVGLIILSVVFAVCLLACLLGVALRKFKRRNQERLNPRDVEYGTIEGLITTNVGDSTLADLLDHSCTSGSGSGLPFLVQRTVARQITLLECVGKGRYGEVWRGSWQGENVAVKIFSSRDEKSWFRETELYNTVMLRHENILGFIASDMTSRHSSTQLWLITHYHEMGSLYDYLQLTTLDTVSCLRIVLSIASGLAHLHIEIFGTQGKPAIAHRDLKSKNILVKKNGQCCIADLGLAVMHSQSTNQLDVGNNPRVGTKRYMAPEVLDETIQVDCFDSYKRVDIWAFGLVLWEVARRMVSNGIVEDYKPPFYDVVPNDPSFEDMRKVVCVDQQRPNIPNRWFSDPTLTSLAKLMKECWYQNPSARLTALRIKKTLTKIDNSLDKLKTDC

Which results are given for O=C1C=C(N2CCOCC2)c2ccccc2C1=O?
IC50 [1]: > 39.8 µM (not active); AC50 [2]: 1.05 µM (active); EC50 (Protein RecA): 0.15 µM (active)

With N#Cc1ccc2[nH]c(O)c(-c3ccc(CN4CCOCC4)cn3)c2c1 [AZD-1080] as the compound, how does the Ki [3] read?
The Ki was > 2 µM (inactive).

And the Ki [4]?
The Ki was > 2.51 µM (inactive).

What about the Ki [5] of the same compound?
The Ki was > 1.58 µM (inactive).

What about the Ki (Activin receptor type-1) of the same compound?
The Ki was > 3.98 µM (inactive).

What about the Ki [6] of the same compound?
Its Ki is > 3.98 µM (inactive).

And the Ki [7]?
The Ki was > 1.58 µM (inactive).

And the Ki [8]?
Its Ki is > 10 µM (inactive).

What about the Ki (Ephrin type-A receptor 2) of the same compound?
The Ki was > 3.16 µM (inactive).

What about the Ki [9] of the same compound?
Its Ki is > 2.51 µM (inactive).

What about the Ki [10] of the same compound?
The Ki was > 2.51 µM (inactive).

What about the Ki [11] of the same compound?
Its Ki is > 6.31 µM (inactive).

And the Ki [12]?
The Ki was > 3.98 µM (inactive).

And the Ki [13]?
The Ki was > 10 µM (inactive).

What does the source list for CCc1oc2ccccc2c1C(=O)c1cc(Br)c(O)c(Br)c1 [BENZBROMARONE]?
IC50 [1]: > 39.8 µM (not active); EC50 (Streptococcus): > 150 µM (not active); IC50 [14]: 18.8 µM (inactive); IC50 (Perilipin-1/ABHD5): 15 µM (inactive); AC50 [2]: 2.75 µM (active); EC50 (Protein RecA): 11.5 µM (active)
